Experiments:
[1] = test system: Human monocytic dendritic cells infected with AAV.SAN024; assay: Cytokine release (Meso Scale Discovery) from dendritic cells treated with IRAK4 modulators and infected with AAV; assay type: cell-based; conditions: for AAV-induced secretion of IL1b cytokine from dendritic cells: 80 nM, all doses
Description: Preparation of peripheral blood mononuclear cells. Blood from leukopaks (Stem cell technologies) from different donors was decanted into 50 mL tubes and Dulbecco's phosphate buffered saline (DPBS) was added at a 1:1 ratio. The blood plus DBPS mix was gently pipetted into a separate 50 mL tube containing 15 mL Ficoll (GE17-5442-02) to ensure no mixing of the blood and Ficoll phases. The mixture was centrifuged at 2000 RPM for 25 minutes at room temperature (9 acceleration and no braking). The buffy coat containing the peripheral blood mononuclear cells (PBMCs) was collected, transferred to a new tube, and centrifuged for five minutes at 400 RCF. PBMCs were washed three times with phosphate buffered saline (PBS) containing 1% fetal bovine serum (FBS) or fetal calf serum (FCS) and counted.
Isolation of monocytes. CD14+ monocytes were isolated from the PBMCs using CD14 MicroBeads following the manufacturer's protocol (Miltenyi Biotech, Germany, order no. 130-050-201, protocol available online world wide web miltenyibiotec.com/upload/assets/IM0001260.PDF). Briefly, PBMCs were incubated with 20 μL of CD14 MicroBeads per 10^7 total cells for 15 minutes at 2-8° C. PBMCs were applied onto a magnetic column (Miltenyi; world wide web miltenyibiotec.com/US-en/products/ls-columns.html#130-042-401) and unlabeled cells were allowed to pass through. After washing the column three times, the column was removed from the magnetic separator, (Miltneyi; world wide web miltenyibiotec.com/US-en/products/quadromacs-separator-and-starting-kits.html#130-091-051) placed on a collection tube, and magnetically labeled CD14+ monocytes were flushed out by pushing a plunger into the column.
Differentiation of monocytes. CD14+ monocytes were differentiated into dendritic cells using ImmunoCult-ACF Dendritic Cell Media, Differentiation Supplement, and Maturation Supplement (Stem Cell Technologies, catalog #10986, #10988, and #10989; world wide web cdn.stemcell.com/media/Files/pis/DX20521-PIS_1_2_0.pdf?_ga=2.81451927.1035383195.1642105700-1174975582.1603298321) following the manufacturer's protocol available online. Briefly, purified CD14+ monocytes were added to Dendritic Cell Media containing the Differentiation Supplement and incubated at 37° C. for three days. On day 3, media was replaced with fresh Dendritic Cell media containing Differentiation Supplement and cells were incubated for two additional days. On day 5, Maturation Supplement was added to the cells at a 1 to 100 dilution (e.g. 50 μL supplement per 5 mL culture). Differentiated dendritic cells were harvested on day 7.
rAAV production and titration. rAAV vectors (AAV.SAN024 and AAV.SAN029) were produced using a standard triple transfection method (Sena-Esteves and Gao, Cold Spring Harb Protoc; doi:10.1101/pdb.top095513, 2020). All serotypes tested encode the same GFP transgene. Viruses were purified by cesium chloride ultracentrifugation and titrated using both silver staining and quantitative polymerase chain reaction (qPCR).
IRAK4 targeting drugs and AAV Treatments. Dendritic cells were plated in 96 well plates with 200,000 cells per well. Each treatment was performed in triplicates. Cells were treated with zimlovisertib IRAK4 inhibitor (Synonyms: PF-06650833) Cat. No.: HY-19836 (MedChemExpress) and PROTAC IRAK4 degrader-1 Cat. No.: HY-129966 (MedChemExpress) at 16 nm, 80 nm, 400 nm and 2000 nm for 18 hrs at 37° C., 5% CO2 in an incubator. […] The cells were incubated at 37° C., 5% CO2 in an incubator for 24 hours. After 24 hours, plates were centrifuged and media supernatant was collected. The clarified media was analyzed by Meso Scale Discovery MSD (world wide web mesoscale.com/products/v-plex-proinflammatory-panel-1-human-kit-k15049d/) performed by DC3 therapeutics https://www.dc3therapeutics.com/services. The experiment outline of PBMC isolation, monocyte purification and dendritic cell differentiation is illustrated in FIG. 1. […]

[2] = test system: Human monocytic dendritic cells; assay: LDH release assay (cell cytotoxicity); assay type: cell-based; conditions: 16 nM, 80 nM, 400 nM and 2000 nM with AAV.SAN024 MOI 1e5 24 hrs, versus untreated/uninfected cells
Description: IRAK4 targeting drugs and AAV Treatments. Dendritic cells were plated in 96 well plates with 200,000 cells per well. Each treatment was performed in triplicates. Cells were treated with zimlovisertib IRAK4 inhibitor (Synonyms: PF-06650833) Cat. No.: HY-19836 (MedChemExpress) and PROTAC IRAK4 degrader-1 Cat. No.: HY-129966 (MedChemExpress) at 16 nm, 80 nm, 400 nm and 2000 nm for 18 hrs at 37° C., 5% CO2 in an incubator. After pre-treatment of 18 hrs with the drugs, AAV vectors at 1e5 MOI were used. The cells were incubated at 37° C., 5% CO2 in an incubator for 24 hours. After 24 hours, plates were centrifuged and media supernatant was collected. The clarified media was analyzed by Meso Scale Discovery MSD (world wide web mesoscale.com/products/v-plex-proinflammatory-panel-1-human-kit-k15049d/) performed by DC3 therapeutics https://www.dc3therapeutics.com/services. […]
LDH Release Assay. Cell cytotoxicity was measured by release of lactate dehydrogenase (LDH) in media supernatants. LDH was quantified using Promega kit (Catalog #G1780) as per manufacturer's protocol. […] Stop Solution was added, and the absorbance signal is measured at 490 nm in a plate reader. https://www.promega.com/products/cell-health-assays/cell-viability-and-cytotoxicity-assays/cytotox-96-non_radioactive-cytotoxicity-assay/?catNum=G1780#protocols […]

[3] = co-treated with 16 nM, 400 nM and 2000 nM and AAV.SAN024 MOI 1e5 at the same time, 24 hrs
[4] = co-treated with 16-2000 nM and AAV.SAN024 MOI 1e5, 24 hrs
[5] = pre-treated 18 hrs with 16 nM, 400 nM and 2000 nM, then AAV.SAN024 MOI 1e5 24 hrs, three donors
[6] = pre-treated 18 hrs with 16-2000 nM, then AAV.SAN024 MOI 1e5 24 hrs

Row | Structure (SMILES) | AAV-induced secretion of IL1b cytokine from dendritic cells [1, 3] | AAV-induced IL6 release from dendritic cells [1, 4] | AAV-induced TNFα release from dendritic cells [1, 4] | AAV-induced secretion of IL1b cytokine from dendritic cells [1, 5] | AAV-induced IL6 release from dendritic cells [1, 6] | AAV-induced TNFα release from dendritic cells [1, 6] | Cellular toxicity (LDH release in media supernatants) [2]
1 | CC[C@@H]1[C@H](F)C(=O)N[C@@H]1COc1nccc2cc(C(N)=O)c(OC)cc12 [zimlovisertib, 1-[[(2S,3S,4S)-3-Ethyl-4-fluoro-5-oxo-2-pyrrolidinyl]methoxy]-7-methoxy-6-isoquinolinecarboxamide] | blocked | Cytokine block was also observed | Cytokine block was also observed | blocked | Cytokine block was also observed | Cytokine block was also observed | no cellular toxicity
2 | O=C1CCC(N2C(=O)c3cccc(NCc4cn(CCCNC(=O)c5ccc(-n6cc(NC(=O)c7coc(-c8ccnc(NCC9CC9)c8)n7)c(C(F)(F)F)n6)cc5)cn4)c3C2=O)C(=O)N1 (centres unmarked) [PROTAC IRAK4 degrader-1] | blocked | Cytokine block was also observed | Cytokine block was also observed | blocked | Cytokine block was also observed | Cytokine block was also observed | no cellular toxicity

From patent publication US20230405151A1, “USE OF IRAK4 MODULATORS FOR GENE THERAPY” (Genzyme Corporation, priority 2022, published 2023)
